Measured values taken from BindingDB's records for patent US20240025893 (Asahi Kasei Pharma, 2024).

Molecular target: T1, Interleukin-1 receptor-associated kinase 4 (Homo sapiens, UniProt Q9NWZ3)
T1 sequence (Q9NWZ3 whole entry): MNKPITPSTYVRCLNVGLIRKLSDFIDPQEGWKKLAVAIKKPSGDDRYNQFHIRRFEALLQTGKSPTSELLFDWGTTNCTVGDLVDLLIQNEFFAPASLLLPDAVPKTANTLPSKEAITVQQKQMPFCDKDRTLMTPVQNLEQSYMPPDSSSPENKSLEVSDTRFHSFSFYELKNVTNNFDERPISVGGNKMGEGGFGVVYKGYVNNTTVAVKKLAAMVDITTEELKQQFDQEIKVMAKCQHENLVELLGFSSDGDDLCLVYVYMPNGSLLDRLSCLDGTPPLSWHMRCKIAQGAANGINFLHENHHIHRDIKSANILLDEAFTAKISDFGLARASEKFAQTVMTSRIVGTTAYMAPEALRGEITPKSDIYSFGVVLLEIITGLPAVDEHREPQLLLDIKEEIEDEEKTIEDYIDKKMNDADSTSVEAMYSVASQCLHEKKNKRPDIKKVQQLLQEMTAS
Experiment: Measurement of Human IRAK-4 Inhibitory Activity
Description: For the measurement of the activity of the human IRAK-4 (Invitrogen, Cat. PV3362), phosphorylation of the IRAK-4 peptide substrate (biotin-KKKKRFSFKKSFKC) by the enzyme in the presence of 10 μM ATP (Sigma-Aldrich, Cat. A7699) was measured by the TR-FRET method. The enzymatic reaction was performed in a reaction buffer containing 50 mM HEPES (pH 7.2), 1 mM DTT, 0.1 mM Na3VO4, 5 mM MgCl2, 1 mM MnCl2, and 0.1% bovine serum albumin. For the measurement of the IRAK-4 inhibitory activity, a test compound was added to the reaction buffer containing 1 nM IRAK-4, 0.5 μM peptide substrate, and 10 μM ATP, and the mixture was incubated at 23° C. for 30 minutes. Then, a detection solution containing an antibody labeled with europium cryptate (0.3 μg/mL, the antibody was prepared by using the IRAK-4 peptide substrate as the antigen), streptavidin-XL665 (2 μg/mL, CisBio, Cat. 610SAXLB), 50 mM HEPES (pH 7.2), 0.1% BSA, 120 mM KF, and 66.7 mM EDTA (all the concentrations of the reagents are final concentrations) was added to terminate the reaction, and then the mixture was further incubated at 23° C. for 60 minutes.

Structure (SMILES)	IC50 [nM]
CO[C@H]1C[C@@H](C(=O)Nc2nc3ccc(-c4cnc(CO[C@H]5CCC[C@@H]5O)nc4)cc3s2)C1 [US20240025893, Example a-01-06]	3.29
CC(C)(C)OC1CC(C(=O)Nc2cc3cc(-c4cnc(CO[C@H]5CCC[C@@H]5O)nc4)ccn3n2)C1 (some centres not stated) [US20240025893, Examplee-03-01]	1.75
